Like-named read-outs stand apart in the source and are kept apart here.
Tests used:
PAR2 = target: T1, PAR2 (Homo sapiens, UniProt P55085); test: Intracellular calcium concentration measurement (SLIGKV-NH2-induced calcium change, Fluo-8, FDSS/μCELL); format: cell-based
T1 construct: HEK293 cell lines derived from human embryonic kidney cultured in a MEM culture medium; endogenous in cells; host or cells: HEK293
T1 sequence (P55085 26-397): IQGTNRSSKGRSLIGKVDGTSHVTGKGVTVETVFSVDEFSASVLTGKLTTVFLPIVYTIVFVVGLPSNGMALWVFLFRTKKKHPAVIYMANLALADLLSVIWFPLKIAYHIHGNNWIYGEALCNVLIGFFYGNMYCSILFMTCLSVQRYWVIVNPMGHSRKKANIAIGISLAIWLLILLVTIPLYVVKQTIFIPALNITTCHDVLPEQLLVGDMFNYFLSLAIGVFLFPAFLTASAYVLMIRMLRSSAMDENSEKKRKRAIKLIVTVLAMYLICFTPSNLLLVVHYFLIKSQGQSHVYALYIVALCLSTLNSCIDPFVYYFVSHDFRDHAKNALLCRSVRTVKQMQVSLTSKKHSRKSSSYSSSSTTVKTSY

NZW rabbits = test: Rabbit skin cumulative irritation test (erythema and edema scores, 7 days); format: in vivo; parameters: key: sum of erythema (5-point scale) + edema (5-point scale) scores; conditions: 50 μL of 3% solution in 70% ethanol daily for 7 days; for Irritant score Day 7: average total score of erythema and edema on Day 7; for Irritant score Maximum: maximum (total) score of erythema and edema during the test period
Description: Test Example 4: Rabbit Skin Cumulative Irritation Test
18-20 week-old female NZW rabbits shaved on the back with a shaver were fitted with a collar (Natsume Seisakusho Co., Ltd.). A 2.5 cm×2.5 cm frame was placed on the back of the rabbits, and 50 μL of a 3% solution of each compound in 70% ethanol was applied to the place in 2 or 3 rabbits. The next day (approximately 24 hours later), the compound applied on the previous day was wiped off with a cotton pad soaked in lukewarm water, and approximately 30 minutes later, erythema (5-point scale) and edema (5-point scale) were evaluated according to the score criteria shown below.
After the score evaluation, the compound was applied again. This process was conducted for 7 days, and irritancy was evaluated by the average of the total score of erythema and edema on the last day of evaluation (Day 7) and the maximum (total) scores during the test period.
The score evaluation criteria were as follows.

NC/Nga mice = test: Scratching behavior test using atopic dermatitis model (SDS and mite antigen ointment sensitization); conditions: 60 μL applied, 7 hours after application
ICR mice = test: Scratching behavior test with PAR2 agonist peptide (SLIGRL-NH2) administration; format: in vivo, mouse; conditions: 40 μL of 6% test compound solution applied to back, SLIGRL-NH2 intradermal, scratching counted 10 to 40 minutes after
Description: Test Example 2: Scratching Behavior Test with PAR2 Agonist Peptide Administration
Magnets for measuring scratching behavior(Neuroscience, Inc.) were implanted in both legs of 6- to 7-week-old female ICR mice under 3.5% isoflurane inhalation anesthesia.
Under isoflurane inhalation anesthesia, the upper back was shaved about 2×3 cm with a shaver and 40 μL of a 6% of test compound solution was applied with a micropipette. The animals were then kept in a dedicated cage for 1 hour. […] Then, under isoflurane inhalation anesthesia, 10 μL of a 25 mg/mL solution of PAR2 agonist peptide (SLIGRL-NH2) in distilled water was administered intradermally by using a needle attached to a Hamilton syringe. The animals were returned to the cage and the scratching frequency was measured by the device for 30 minutes from 10 to 40 minutes after the administration.
The inhibitory effect of the test compounds on scratching behavior was calculated as a percentage of the number of scratches in the solvent-applied and PAR2 agonist peptide-treated group, and is shown in Table 4 as a percentage.

[1] = HEK293 cells, SLIGKV-NH2 10 μM-induced intracellular calcium change, read-out: IC50
[2] = assessed concentration 6%, solvent 100% ethanol
[3] = assessed concentration 1%, solvent 100% ethanol
[4] = assessed concentration 6%, solvent 70% ethanol

| IC50 (PAR2; [1]) [nM] | SMILES | Irritant score Day 7 (NZW rabbits) | Irritant score Maximum (NZW rabbits) | Scratching behavior inhibition rate (NC/Nga mice; [2]) [%] | scratching-behavior inhibition rate (ICR mice; solvent 100% ethanol) [%] | further results |
| --- | --- | --- | --- | --- | --- | --- |
|  | CC(C)c1cc(CC2CCCCC2)nc2cc(C(=O)N3CCCCCC3)nn12 [Example 7, azepan-1-yl(5-(cyclohexylmethyl)-7-isopropylpyrazolo[1,5-a]pyrimidin-2-yl)methanone] | 0.3 | 1.3 | 70 | 32 | IC50 (PAR2; IC50 (nM)): 113 nM |
| 95 | O=C(c1cc2nc(CC3CCCCC3)cc(C3CCCCC3)n2n1)N1CCCCCC1 [Example 8, azepan-1-yl(7-cyclohexyl-5-(cyclohexylmethyl)pyrazolo[1,5-a]pyrimidin-2-yl)methanone] |  |  | 50 | 30 |  |
| 149 | O=C(c1cc2nc(CCC3CCCC3)cc(C(F)(F)F)n2n1)N1CCCCCC1 [Example 6, azepan-1-yl(5-(2-cyclopentylethyl)-7-(trifluoromethyl)pyrazolo[1,5-a]pyrimidin-2-yl)methanone] |  |  | 60 |  |  |
| 569 | O=C(c1cc2nc(C3CCCC3)cc(C(F)(F)F)n2n1)N1CCCCCC1 [Example 55] |  |  |  |  | scratching-behavior inhibition rate (ICR mice; solvent Acetone/methanol (1:1)): 47%; Scratching behavior inhibition rate (NC/Nga mice; assessed concentration 6%, solvent Acetone/methanol (1:1)): 54% |
| 150 | CC(C)c1cc(CC2CCCC2)nc2cc(C(=O)N3CCCCCC3)nn12 [Example 15, azepan-1-yl-[5-(cyclopentylmethyl)-7-propan-2-ylpyrazolo[1,5-a]pyrimidin-2-yl]methanone] | 0.0 | 0.7 |  | 44 | Scratching behavior inhibition rate (NC/Nga mice; assessed concentration 3%, solvent 100% ethanol): 52% |
| 173 | CCCc1cc(C23CC4CC(CC(C4)C2)C3)nc2cc(C(=O)N3CCCCCC3)nn12 [Example 1] |  |  | 76 | 35 |  |
| 23 | O=C(c1cc2nc(CC3CCCCC3)cc(C(F)(F)F)n2n1)N1CCCCCC1 [Example 3, azepan-1-yl(5-(cyclohexylmethyl)-7-(trifluoromethyl)pyrazolo[1,5-a]pyrimidin-2-yl)methanone] | 1.5 | 1.6 |  |  | scratching-behavior inhibition rate (ICR mice; solvent 70% ethanol): 33%; Scratching behavior inhibition rate (NC/Nga mice; [4]): 71% |
| 130 | CC1(C)CC(O)CCN1C(=O)c1cc2nc(CC3CCCCC3)cc(C(F)(F)F)n2n1 (centres unmarked) [Example 5] |  |  |  | 36 |  |
| 141 | O=C(c1cc2nc(C34CC5CC(CC(C5)C3)C4)cc(C(F)(F)F)n2n1)N1CCCCCC1 [Example 94] |  |  |  |  | scratching-behavior inhibition rate (ICR mice; solvent Acetone/methanol (1:1)): 44% |
| 109 | O=C(c1cc2nc(CC3CCCC3)cc(C(F)(F)F)n2n1)N1CCCCCC1 [Example 4, azepan-1-yl(5-(cyclopentylmethyl)-7-(trifluoromethyl)pyrazolo[1,5-a]pyrimidin-2-yl)methanone] |  |  |  |  | Scratching behavior inhibition rate (NC/Nga mice; [4]): 56% |

| SMILES | IC50 (PAR2; [1]) [nM] | Irritant score Day 7 (NZW rabbits) | Irritant score Maximum (NZW rabbits) | Scratching behavior inhibition rate (NC/Nga mice; [2]) [%] | scratching-behavior inhibition rate (ICR mice; solvent 100% ethanol) [%] | further results |
| --- | --- | --- | --- | --- | --- | --- |
| CC(C)c1cc(CCC2CCCC2)nc2cc(C(=O)N3CCCCCC3)nn12 [Example 14] | 186 | 2.0 | 2.0 | 95 |  |  |
| CCc1cc(CC2CCCCC2)nc2cc(C(=O)N3CCCCCC3)nn12 [Example 19] | 131 |  |  |  | 42 | Scratching behavior inhibition rate (NC/Nga mice; [3]): 70% |
| CC(C)c1cc(CCC2CCCCC2)nc2cc(C(=O)N3CCCCCC3)nn12 [Example 17] | 232 | 0.7 | 1.3 | 60 |  |  |
| CCCCc1cc(CC2CCCCC2)nc2cc(C(=O)N3CCCCCC3)nn12 [Example 10] | 178 |  |  |  | 41 | Scratching behavior inhibition rate (NC/Nga mice; [3]): 48% |
| CCc1cc(CC2CCCC2)nc2cc(C(=O)N3CCCCC3(C)C)nn12 [Example 11] | 252 |  |  | 80 |  |  |
| CC(C)c1cc(CC2CCCC2)nc2cc(C(=O)N3CCCCC3(C)C)nn12 [Example 12] | 76 | 0.0 | 0.0 | 102 | 51 |  |

Source: patent US20240376109A1, “PYRAZOLO[1,5-A]PYRIMIDINE COMPOUND FOR THE TREATMENT OF DERMAL DISORDERS” (OTSUKA PHARMACEUTICAL CO., LTD., priority 2021, published 2024)
